Consider 9 compounds from ChEMBL document CHEMBL5233290, “Anulamycins A-F, Cinnamoyl-Containing Peptides from a Lake Sediment Derived Streptomyces” (J Nat Prod, 2023).

Converted amounts (≈) assume the structure as drawn.

For assay [1], the system named is Staphylococcus aureus. Put plainly: Antibacterial activity against Staphylococcus aureus ATCC 43300 assessed as inhibition of bacterial growth incubated for 18 hrs by 2-fold serial dilution method. The class given is functional.
The subject of assay [2] is Bacillus subtilis. Put plainly: Antibacterial activity against Bacillus subtilis E168 assessed as inhibition of bacterial growth incubated for 18 hrs by 2-fold serial dilution method. The class given is functional.
Assay [3] has as its system Escherichia coli. Put plainly: Antibacterial activity against Escherichia coli ATCC35218 assessed as inhibition of bacterial growth incubated for 18 hrs by 2-fold serial dilution method. The class given is functional.
In assay [4] the test system is Staphylococcus epidermidis. Put plainly: Antibacterial activity against Staphylococcus epidermidis ATCC12228 assessed as inhibition of bacterial growth incubated for 18 hrs by 2-fold serial dilution method. The conditions noted are these: ATCC12228, 18 h.
Assay [5] relates to A549. Nature of the assay: Cytotoxicity against human A549 cells assessed as reduction in cell viability incubated for 72 hrs by CCK8 assay. The following applies: A549, 72 h. The class given is functional, cell-based. On the technique in general: Formazan colour is commonly taken as a measure of viable cells.
In assay [6] the test system is K562. Nature of the assay: Cytotoxicity against human K562 cells assessed as reduction in cell viability incubated for 72 hrs by CCK8 assay. The class given is functional, cell-based. The following applies: K562, 72 h.

The MIC is the smallest concentration in the dilution series that meets the test's criterion for growth inhibition. What is called IC50 is the midpoint of a concentration-inhibition curve. Regarding `C/C=C\c1ccccc1/C=C/C(=O)N[C@H](C(=O)N[C@@H](C)C(=O)N[C@@H](CC(=O)O)C(=O)NCC(=O)N[C@H](C(=O)N1CCC[C@H]1C(=O)N[C@H](C(=O)N[C@H](Cc1c[nH]c2ccccc12)C(N)=O)[C@@H](O)c1ccc(OC)cc1)[C@@H](O)c1ccccc1)[C@@H](C)O`, the MIC in assay [1] is 64 µM (≈ 75 µg/mL); in assay [2], above 128 µM; in assay [3], above 128 µM; in assay [4] it was above 128 µM. The IC50 in assay [5] and in assay [6] was above 10 µM each time.
In the case of `C/C=C\c1ccccc1/C=C/C(=O)N[C@H](C(=O)N[C@@H](C)C(=O)N[C@H](C(N)=O)[C@H](C)C(=O)N1CC(=O)N[C@@H]([C@@H](O)c2ccccc2)C(=O)N2CCC[C@H]2C(=O)N[C@@H]([C@@H](O)c2ccc(OC)cc2)C(=O)N[C@H](Cc2c[nH]c3ccccc23)C1=O)[C@@H](C)O`, the MIC in assay [1] is 32 µM (≈ 37.4 µg/mL); in assay [2], 32 µM (≈ 37.4 µg/mL); in assay [3], above 128 µM; in assay [4] it was 64 µM (≈ 74.7 µg/mL). Moreover, the 50% inhibitory concentration (IC50) in assay [5] and in assay [6] was above 10 µM in each case.
Take `C/C=C\c1ccccc1/C=C/C(=O)N[C@@H]1C(=O)N[C@@H](C)C(=O)N[C@@H](CC(=O)O)C(=O)NCC(=O)N[C@@H]([C@@H](O)c2ccccc2)C(=O)N2CCC[C@H]2C(=O)N[C@@H]([C@@H](O)c2ccc(OC)cc2)C(=O)N[C@H](Cc2c[nH]c3ccccc23)C(=O)N[C@@H](O)C(=O)N[C@H](CC(C)C)C(=O)N[C@H]([C@@H](O)C(C)C)C(=O)O[C@@H]1C`: the minimum inhibitory concentration (MIC) was 32 µM (≈ 47 µg/mL) in assay [1], 48 µM (≈ 70.5 µg/mL) in assay [2], above 128 µM in assay [3] and 64 µM (≈ 94.1 µg/mL) in assay [4]. In addition, the IC50 in assay [5] and in assay [6] was above 10 µM each time.
In the case of `C/C=C\c1ccccc1/C=C/C(=O)N/C(=C\C)C(=O)N[C@@H](C)C(=O)N[C@H](C(N)=O)[C@H](C)C(=O)N1CC(=O)N[C@@H]([C@@H](O)c2ccccc2)C(=O)N2CCC[C@H]2C(=O)N[C@@H]([C@@H](O)c2ccc(OC)cc2)C(=O)N[C@H](Cc2c[nH]c3ccccc23)C1=O`, the minimal inhibitory concentration (MIC) in assay [1] was 16 µM (≈ 18.4 µg/mL); in assay [2] it was 16 µM (≈ 18.4 µg/mL); in assay [3], above 128 µM; in assay [4] it was 16 µM (≈ 18.4 µg/mL). The IC50 in assay [5] and in assay [6] was above 10 µM each time.
`NC[C@H]1O[C@H](O[C@H]2[C@H](O)[C@@H](O[C@H]3O[C@H](CO)[C@@H](O)[C@H](N)[C@H]3O)[C@H](N)C[C@@H]2N)[C@H](O)[C@@H](O)[C@@H]1O` [KANAMYCIN]: the MIC in assay [1], in assay [2], in assay [3] and in assay [4] was below 2 µM each time.
As to `C/C=C\c1ccccc1/C=C\C(=O)N[C@H](C(=O)N[C@@H](C)C(=O)N[C@H](C(N)=O)[C@H](C)C(=O)N1CC(=O)N[C@@H]([C@@H](O)c2ccccc2)C(=O)N2CCC[C@H]2C(=O)N[C@@H]([C@@H](O)c2ccc(OC)cc2)C(=O)N[C@H](Cc2c[nH]c3ccccc23)C1=O)[C@@H](C)O`, the MIC is 32 µM (≈ 37.4 µg/mL) in assay [1], 64 µM (≈ 74.7 µg/mL) in assay [2], above 128 µM in assay [3] and 64 µM (≈ 74.7 µg/mL) in assay [4]. Moreover, the 50% inhibitory concentration (IC50) in assay [5] and in assay [6] was above 10 µM in each case.
In the case of `C/C=C\c1ccccc1/C=C/C(=O)N[C@@H]1C(=O)N[C@@H](C)C(=O)N[C@@H]([C@H](C)C(=O)O)C(=O)NCC(=O)N[C@@H]([C@@H](O)c2ccccc2)C(=O)N2CCC[C@H]2C(=O)N[C@@H]([C@@H](O)c2ccc(OC)cc2)C(=O)N[C@H](Cc2c[nH]c3ccccc23)C(=O)N[C@@H](O)C(=O)N[C@H](CC(C)C)C(=O)N[C@H]([C@@H](O)C(C)C)C(=O)O[C@@H]1C`, the MIC in assay [1] was 16 µM (≈ 23.7 µg/mL); in assay [2], 16 µM (≈ 23.7 µg/mL); in assay [3], above 128 µM; in assay [4] it was 32 µM (≈ 47.5 µg/mL). The IC50 in assay [5] and in assay [6] was above 10 µM throughout.
Take `C/C=C\c1ccccc1/C=C\C(=O)N[C@H](C(=O)N[C@@H](C)C(=O)N[C@@H](CC(=O)O)C(=O)NCC(=O)N[C@H](C(=O)N1CCC[C@H]1C(=O)N[C@H](C(=O)N[C@H](Cc1c[nH]c2ccccc12)C(N)=O)[C@@H](O)c1ccc(OC)cc1)[C@@H](O)c1ccccc1)[C@@H](C)O`: the minimal inhibitory concentration (MIC) in assay [1] is 64 µM (≈ 75 µg/mL); in assay [2] it was above 128 µM; in assay [3], above 128 µM; in assay [4] it was above 128 µM. For the same compound, the concentration for half-maximal inhibition (IC50) in assay [5] and in assay [6] was above 10 µM in each case.
Consider `C/C=C\c1ccccc1/C=C/C(=O)N[C@H](C(=O)N[C@@H](C)C(=O)N[C@@H](CC(=O)N1CC(=O)N[C@@H]([C@@H](O)c2ccccc2)C(=O)N2CCC[C@H]2C(=O)N[C@@H]([C@@H](O)c2ccc(OC)cc2)C(=O)N[C@H](Cc2c[nH]c3ccccc23)C1=O)C(N)=O)[C@@H](C)O`, for which the MIC in assay [1] is 64 µM (≈ 73.8 µg/mL); in assay [2], 64 µM (≈ 73.8 µg/mL); in assay [3] it was above 128 µM; in assay [4], 128 µM (≈ 148 µg/mL). Moreover, the IC50 in assay [5] and in assay [6] was above 10 µM each time.
